Data set [1] deals with Lipid bilayer. Description: Induction of ionophore activity across EYPC:CHOL (8:2) large unilamellar vesicles assessed as transmembrane cation transport by measuring decrease in fluorescence intensity for HPTS dye preincubated for 3 mins followed by LiCl addition and mesured after 7.5 mins by HPTS dye based fluorescence spectrophotometric analysis. The note with it: time 10.5 min.

Data set [2] deals with Lipid bilayer. Description: Induction of ionophore activity across EYPC:CHOL (8:2) large unilamellar vesicles assessed as transmembrane cation transport by measuring decrease in fluorescence intensity for HPTS dye preincubated for 3 mins followed by CaCl2 addition and mesured after 7.5 mins by HPTS dye based fluorescence spectrophotometric analysis. The following applies: time 10.5 min.

The subject of data set [3] is Lipid bilayer. Description: Induction of ionophore activity across EYPC:CHOL (8:2) large unilamellar vesicles assessed as transmembrane anion transport by measuring decrease in fluorescence intensity for HPTS dye at 10 uM preincubated for 3 mins followed by ZnCl2 addition and mesured after 7.5 mins by HPTS dye based fluorescence spectrophotometric analysis. The note with it: filed as opener, time 10.5 min.

Data set [4] concerns Staphylococcus aureus. Description: Antibacterial activity against gentamicin-and methicillin-resistant Staphylococcus aureus ATCC 33592 assessed as reduction in bacterial growth incubated for 14 to 16 hrs by microbroth dilution method. Type of data set: functional. The note with it: time 14-16 hrs.
In the next data set the test system is Escherichia coli. Kind of data set: Antibacterial activity against Escherichia coli MTCC 1687 assessed as reduction in bacterial growth incubated for 14 to 16 hrs by microbroth dilution method. Type of data set: functional. The following applies: time 14-16 hrs.
Data set [5] deals with Staphylococcus aureus. Kind of data set: Antibacterial activity against Staphylococcus aureus MTCC-96 assessed as reduction in bacterial growth incubated for 14 to 16 hrs in presence of 100 to 400 uM ZnBr2 by microbroth dilution method. In kind it is functional, organism-based. The following applies: time 14-16 hrs.
Data set [6] relates to Staphylococcus aureus. Kind of data set: Antibacterial activity against Staphylococcus aureus MTCC-96 assessed as reduction in bacterial growth incubated for 14 to 16 hrs in presence of 100 to 400 uM Zn(NO3)2 by microbroth dilution method. The following applies: time 14-16 hrs. In kind it is functional, organism-based.
The test system of data set [7] is Staphylococcus aureus. Kind of data set: Antibacterial activity against Staphylococcus aureus MTCC-96 assessed as reduction in bacterial growth incubated for 14 to 16 hrs in presence of 100 to 400 uM ZnSO4 by microbroth dilution method. In kind it is functional, organism-based. The note with it: time 14-16 hrs.
Data set [8] relates to Staphylococcus aureus. Description: Bactericidal activity against Staphylococcus aureus MTCC-96 at 2 times MIC incubated for 2 hrs by time kill assay. Type of data set: functional, organism-based.
The next data set deals with Cell membrane. Kind of data set: Induction of cell membrane depolarization in Staphylococcus aureus MTCC-96 assessed as change in fluorescence intensity at 3.13 uM by DiSC3-5 dye based fluorescence method. In kind it is subcellular.
A further data set deals with MCF7. Description: Cytotoxicity against human MCF7 cells assessed as reduction in cell viability at 1 to 100 uM incubated for 44 hrs by MTT assay. The following applies: mcf7, 44 h, dose 1-100 µM. In kind it is toxicity, cell-based.
The test system of a further data set is HCT-116. Kind of data set: Cytotoxicity against human HCT-116 cells assessed as reduction in cell viability at 1 to 100 uM incubated for 44 hrs by MTT assay. Type of data set: toxicity, cell-based. The following applies: hct-116, 44 h, dose 1-100 µM.
Data set [9] has as its system Lipid bilayer. Description: Induction of ionophore activity across EYPC:CHOL (8:2) large unilamellar vesicles assessed as transmembrane Zn2+ ion transport by measuring decrease in fluorescence intensity for HPTS dye preincubated for 3 mins followed by ZnCl2 addition and mesured after 7.5 mins by HPTS dye based fluorescence spectrophotometric analysis.
The subject of data set [10] is Lipid bilayer. Description: Induction of ionophore activity across EYPC:CHOL (8:2) large unilamellar vesicles assessed as transmembrane Zn2+ ion transport by measuring decrease in fluorescence intensity for HPTS dye upto 25 uM preincubated for 3 mins followed by ZnCl2 addition and mesured after 7.5 mins by HPTS dye based fluorescence spectrophotometric analysis. The following applies: filed as opener, time 10.5 min.

The test system of data set [11] is Lipid bilayer. Description: Induction of ionophore activity across EYPC:CHOL (8:2) large unilamellar vesicles assessed as transmembrane Zn2+ ion transport by measuring decrease in fluorescence intensity for HPTS dye at 25 uM preincubated for 3 mins followed by 1 to 25 mM ZnCl2 addition and mesured after 7.5 mins by HPTS dye based fluorescence spectrophotometric analysis. The following applies: filed as opener, time 10.5 min.

Data set [12] can be described thus: Binding affinity to Zn2+ ion assessed as binding constant by Benesi-Hildebrand equation analysis. The following applies: […].
In data set [13] the test system is Staphylococcus aureus. Kind of data set: Bactericidal activity against Staphylococcus aureus MTCC-96 at 2 times MIC incubated for 1 hrs in presence of ZnCl2 by time kill assay. In kind it is functional, organism-based.
Data set [14] relates to Staphylococcus aureus. Kind of data set: Induction of intracellular ROS generation in Staphylococcus aureus MTCC-96 at 1 uM incubated for 30 mins in presence of Zn2+ ions by DCF-DA staining based fluorescence microscopic analysis. In kind it is functional, organism-based.
The subject of the next data set is PBMC. Kind of data set: Cytotoxicity against human PBMC cells assessed as reduction in cell viability at 12.5 to 200 uM incubated for 24 hrs in presence of ZnCl2 by MTT assay. In kind it is toxicity, cell-based. The following applies: dose 12.5-200 µM.
The test system of data set [15] is Staphylococcus aureus. Kind of data set: In vivo antibacterial activity against Staphylococcus aureus MTCC-96 infected in Balb/c mouse assessed as reduction in bacterial load by measuring CFU in liver at 31.6 microM/Kg, iv for 7 days in presence of ZnCl2 by CFU assay. Type of data set: functional, organism-based. The note with it: time 7.0 day.
Data set [16] has as its system Staphylococcus aureus. Description: In vivo antibacterial activity against Staphylococcus aureus MTCC-96 infected in Balb/c mouse assessed as reduction in bacterial load by measuring CFU in spleen at 31.6 microM/Kg, iv for 7 days in presence of ZnCl2 by CFU assay. The note with it: time 7.0 day. Type of data set: functional, organism-based.
The test system of data set [17] is Staphylococcus aureus. Description: In vivo antibacterial activity against Staphylococcus aureus MTCC-96 infected in Balb/c mouse assessed as normal architecture of central vein in liver tissue at 31.6 microM/Kg, iv for 7 days in presence of ZnCl2 by hematoxylin and eosin staining based microscopic analysis. Type of data set: functional, organism-based. The note with it: time 7.0 day.

The subject of data set [18] is Staphylococcus aureus. Description: In vivo antibacterial activity against Staphylococcus aureus MTCC-96 infected in Balb/c mouse assessed as normal architecture of bile duct in liver tissue at 31.6 microM/Kg, iv for 7 days in presence of ZnCl2 by hematoxylin and eosin staining based microscopic analysis. Type of data set: functional, organism-based. The following applies: time 7.0 day.

For data set [19], the system named is Staphylococcus aureus. Kind of data set: In vivo antibacterial activity against Staphylococcus aureus MTCC-96 infected in Balb/c mouse assessed as normal architecture of hepatic artery in liver tissue at 31.6 microM/Kg, iv for 7 days in presence of ZnCl2 by hematoxylin and eosin staining based microscopic analysis. In kind it is functional, organism-based. The following applies: time 7.0 day.

Data set [20] relates to Staphylococcus aureus. Kind of data set: In vivo antibacterial activity against Staphylococcus aureus MTCC-96 infected in Balb/c mouse assessed as uniform distribution of hepatocytes in liver tissue at 31.6 microM/Kg, iv for 7 days in presence of ZnCl2 by hematoxylin and eosin staining based microscopic analysis. In kind it is functional, organism-based. The note with it: time 7.0 day.

Data set [21] relates to Staphylococcus aureus. Kind of data set: In vivo antibacterial activity against Staphylococcus aureus MTCC-96 infected in Balb/c mouse assessed as uniform distribution of hepatic lobules in liver tissue at 31.6 microM/Kg, iv for 7 days in presence of ZnCl2 by hematoxylin and eosin staining based microscopic analysis. The note with it: time 7.0 day. In kind it is functional, organism-based.

The test system of data set [22] is Staphylococcus aureus. Kind of data set: In vivo antibacterial activity against Staphylococcus aureus MTCC-96 infected in Balb/c mouse assessed as uniform distribution of sinusoids in liver tissue at 156.5 microM/Kg, iv for 7 days by hematoxylin and eosin staining based microscopic analysis. The note with it: time 7.0 day. Type of data set: functional, organism-based.

For data set [23], the system named is Staphylococcus aureus. Kind of data set: In vivo antibacterial activity against Staphylococcus aureus MTCC-96 infected in Balb/c mouse assessed as normal morphology of spleen tissue at 156.5 microM/Kg, iv for 7 days by hematoxylin and eosin staining based microscopic analysis. The note with it: time 7.0 day. Type of data set: functional, organism-based.
Data set [24] relates to Staphylococcus aureus. Description: Antibacterial activity against gentamicin-and methicillin-resistant Staphylococcus aureus ATCC 33592 assessed as reduction in bacterial growth incubated for 14 to 16 hrs in presence of 100 uM ZnCl2 by microbroth dilution method. Type of data set: functional. The note with it: time 14-16 hrs.

Values after ≈ are worked out from the molar mass of the structure shown. Active and inactive are the calls of the source. The calls are words filed in the database; no cut-off is given here.

Turning to `FC(F)(F)c1cc(NC(=S)Nc2cccc3cccnc23)cc(C(F)(F)F)c1`, the result with Lipid bilayer [1], in the data set with Lipid bilayer [2] and with Cell membrane was inactive. Moreover, the outcome in the data set with Lipid bilayer [3], in the data set on Staphylococcus aureus [5], in the data set with Staphylococcus aureus [6], with Staphylococcus aureus [7] and in the data set with Staphylococcus aureus [8] was Active. The results for the minimum inhibitory concentration (MIC) with Staphylococcus aureus [4] and in the data set on Escherichia coli were 3.13 µM (≈ 1.3 µg/mL) and > 50 µM, respectively. Besides, the Activity result in the data set with MCF7 and with HCT-116 was “Non-Toxic” throughout.
Take `FC(F)(F)c1cc(NC(=S)Nc2cccc3ccc(-n4cnc5ccccc54)nc23)cc(C(F)(F)F)c1`: in the data set with Lipid bilayer [9], the EC50 is 5.49 µM. Also, the result with Lipid bilayer [1], with Lipid bilayer [2] and in the data set on Cell membrane was inactive. In addition, the result with Lipid bilayer [3], with Lipid bilayer [10], with Lipid bilayer [11], with Staphylococcus aureus [5], with Staphylococcus aureus [6] and in the data set on Staphylococcus aureus [7] was Active. Besides, the outcome with Staphylococcus aureus [13], in the data set on Staphylococcus aureus [14], with Staphylococcus aureus [15], in the data set on Staphylococcus aureus [16], with Staphylococcus aureus [17] and with Staphylococcus aureus [18] was Active. Besides, the result with Staphylococcus aureus [19], in the data set on Staphylococcus aureus [20], in the data set with Staphylococcus aureus [21], with Staphylococcus aureus [22] and in the data set on Staphylococcus aureus [23] was Active. Besides, the K in data set [12] is 1.36 10^3/M. The results for the MIC in the data set on Staphylococcus aureus [4], in the data set on Escherichia coli and in the data set with Staphylococcus aureus [24] were 3.13 µM (≈ 1.66 µg/mL), > 50 µM and 3.13 µM, respectively. Also, the Activity entry in the data set with PBMC, in the data set on MCF7 and in the data set with HCT-116 was “Non-Toxic” throughout.

The record behind these values is ChEMBL document CHEMBL5360614, “Quinoline Thiourea-Based Zinc Ionophores with Antibacterial Activity” (J Med Chem, 2023).
